Calls of active or inactive are those of the source. No rule for the calls is given here.

What is called IC50 is the midpoint of a concentration-inhibition curve.

For the assay, the target named is Perilipin-1 (Homo sapiens) (UniProt O60240). Description: ABHD5 and perilipin-1 interaction blockers – biochemical, luminescence, counter-screen for ABHD5-PLIN5 interaction inhibitor project, dose response (AID 651672).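 Also: split Gaussia luciferase complementation between ABHD5 and PLIN1 fusion fragments.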 Conditions: ABHD5-PLIN1 interaction. Background: A counterscreen serves to expose hits that act by an unwanted route or on another target.
Chain of Perilipin-1 (Homo sapiens) (O60240 whole entry, looked up, the tested form may be a part): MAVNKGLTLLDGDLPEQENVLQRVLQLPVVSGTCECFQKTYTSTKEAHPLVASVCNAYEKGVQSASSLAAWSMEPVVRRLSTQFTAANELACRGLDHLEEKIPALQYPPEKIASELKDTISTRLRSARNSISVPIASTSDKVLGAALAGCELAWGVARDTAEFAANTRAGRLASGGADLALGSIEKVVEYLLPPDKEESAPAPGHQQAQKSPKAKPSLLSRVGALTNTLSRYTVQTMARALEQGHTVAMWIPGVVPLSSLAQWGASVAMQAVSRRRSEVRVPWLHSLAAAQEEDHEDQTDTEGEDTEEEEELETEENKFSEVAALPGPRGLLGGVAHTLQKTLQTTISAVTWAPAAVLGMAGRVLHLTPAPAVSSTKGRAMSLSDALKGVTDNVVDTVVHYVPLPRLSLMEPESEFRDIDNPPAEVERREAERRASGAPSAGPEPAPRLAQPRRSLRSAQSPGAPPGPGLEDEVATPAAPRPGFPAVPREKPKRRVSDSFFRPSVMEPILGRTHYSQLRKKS
Consider `CCOC(=O)/C(=C\c1ccc(Cl)cc1)c1nc2sc(C)c(C)c2c(=O)[nH]1`, for which the IC50 was 0.525 µM.

For `COc1ccc(C(C(=O)Nc2c(C)cccc2C)n2c(=O)c(-c3ccco3)nc3ccccc32)cc1` (stereo unspecified), the IC50 is 1.88 µM.

On to `C#CCN(C[C@@H]1[C@@H](OC(=O)NC2CCCC2)[C@@H](OC(=O)NC2CCCC2)Cn2c(=O)ccc(=O)n21)S(=O)(=O)c1ccc(C)cc1`, for which the IC50 is 4.75 µM.

As for `CCOC(=O)C1C(OC(=O)c2ccccc2)CC2CCC1N2C` (stereo unspecified), the IC50 result is “inactive”.

On to `O=C(/C=C/c1ccccc1)CC(O)(c1ccccc1)C(F)(F)C(F)F` (stereo unspecified), for which the IC50 is 0.821 µM.

As to `O=C(/C(=C/O)N=Nc1ccc(Cl)cc1)c1ccncc1`, the IC50 is 7.4 µM.

As to `CC1=CC(C)(C)Nc2ccc(OC(=O)CN3C(=O)c4cccc5cccc(c45)C3=O)cc21`, the IC50 is 6.42 µM.

As to `CC(=O)OCC1=C(C(=O)O)N2C(=O)C(NC(=O)CCn3nc(C(F)(F)F)c(Br)c3C3CC3)C2SC1` (stereo unspecified), the IC50 is 8.15 µM.

As for `CC(C)(C)NC(=O)C(c1ccc(-c2ccccc2)cc1)n1c(=O)c(-c2ccco2)nc2ccccc21` (stereo unspecified), the IC50 is 1.67 µM.

In the case of `COc1ccc(NC(=O)C(c2ccc(C#N)cc2)n2c(=O)c(-c3ccco3)nc3ccccc32)cc1` (stereo unspecified), the IC50 result is “inactive”.

Consider `CC(=O)Cc1cc(O)c2ccccc2c1OC(=O)c1ccc(Br)cc1`, for which the IC50 was 1.6 µM.

For `CC(C)c1ccc(N2C=Nc3ccc(C(C)C)cc3C2)cc1`, the 50% inhibitory concentration (IC50) is 7.98 µM.

`Cc1nc2c(o1)CCc1ccccc1C2N1CCN(C)CC1` (stereo unspecified): the IC50 entry is “inactive”.

On to `Cc1cc(C)c2nc(NNC(=O)c3ccc(S(=O)(=O)N4CCCC(C)C4)cc3)sc2c1` (stereo unspecified), for which the IC50 is 3.01 µM.

`O=C1C(=O)c2c(C(=O)c3ccccc3)coc2-c2ccccc21`: the IC50 was 4.97 µM.

Consider `O=C(NC1CCCCC1)C(c1ccc(-c2ccccc2)cc1)n1c(=O)c(-c2ccco2)nc2ccccc21` (stereo unspecified), for which the IC50 was 1.88 µM.

As to `CC(=O)Oc1ccc(C23c4ccccc4C2(OC(C)=O)c2cc(OC(C)=O)ccc23)cc1` (stereo unspecified), the IC50 is 0.581 µM.

Regarding `CN(C)CCN(Cc1ccco1)c1ccccn1`, the IC50 result is “inactive”.

`CCCCCNC(=O)C(c1ccc(OC)cc1)n1c(=O)c(-c2ccco2)nc2ccccc21` (stereo unspecified): the IC50 was 1.41 µM.

On to `C#CCN(C[C@@H]1[C@@H](OC(=O)NCCCCCC)[C@@H](OC(=O)NCCCCCC)Cn2c(=O)ccc(=O)n21)S(=O)(=O)c1ccc(C)cc1`, for which the IC50 was 5.99 µM.

As to `O=C(NCc1ccccc1)C(c1ccccc1)n1c(=O)c(-c2ccco2)nc2ccccc21` (stereo unspecified), the IC50 was 2.5 µM.

Regarding `Cc1cc(C)c(NC(=O)CN2CCN3CCCC3C2)c(C)c1` (stereo unspecified), the IC50 result was “inactive”.

For the compound `Cc1ccc2sc(N(CCCN(C)C)C(=O)CN3C(=O)c4ccccc4C3=O)nc2c1C`, the IC50 result is “inactive”.

As for `CC(=O)Oc1c(Cl)c(N2CCOCC2)c(OC(C)=O)c2ccccc12`, the IC50 was 4.44 µM.

As for `Cc1cccc(C)c1NC(=O)C(c1ccncc1)n1c(=O)c(-c2ccco2)nc2ccccc21` (stereo unspecified), the IC50 is 7.15 µM.

Regarding `O=C1NC(=O)N(Cc2ccccc2)C(=O)/C1=C\C=C\c1ccco1`, the IC50 was 1.82 µM.

In the case of `CC(C)(C)NC(=O)C(c1ccccc1)n1c(=O)c(-c2ccco2)nc2ccccc21` (stereo unspecified), the IC50 is 2.04 µM.

Take `CC(c1nc2ccccc2[nH]1)n1c(=O)c(-c2ccco2)nc2ccccc21` (stereo unspecified): the IC50 was 3.37 µM.

Regarding `CCC(c1nc2ccccc2[nH]1)n1c(=O)c(-c2ccco2)nc2ccccc21` (stereo unspecified), the half-inhibitory concentration (IC50) is 3.97 µM.

Turning to `COc1cc(OC)cc(C(=O)NC(=S)N(Cc2ccccc2)C(C)C)c1`, the IC50 result is “inactive”.

Turning to `CN(C)CCCN(C(=O)CCc1ccccc1)c1nc2ccc(Cl)cc2s1`, the IC50 was 6.98 µM.

`CN(C)CCCNC(=O)c1ccc(-c2nc(-c3ccc(Cl)cc3)cs2)cc1`: the IC50 result was “inactive”.

For `O=C(NC1CCCCC1)C(c1ccnc2ccccc12)n1c(=O)c(-c2ccco2)nc2ccccc21` (stereo unspecified), the IC50 is 2.25 µM.

For `FC(F)(F)c1cccc(NC(=S)N(CCCN2CCCC2)Cc2cccn2Cc2ccc(Cl)cc2)c1`, the IC50 result is “inactive”.

With `O=C(Nc1ccc2c(c1)OCCO2)C(c1ccnc2ccccc12)n1c(=O)c(-c2ccco2)nc2ccccc21` (stereo unspecified), the IC50 result is “inactive”.

As for `CCCCNC(=O)Nc1ccc2c(c1)N(C)C(=O)c1ccccc1S2`, the IC50 is 3.19 µM.

As to `Cc1ccc(SC2=C(Sc3ccc(C)cc3)C(=O)c3ccccc3C2=O)cc1`, the IC50 is 6.71 µM.

As for `CN(C)CCOc1ccc(-c2c(-c3ccccc3)sc3ccccc23)cc1`, the IC50 entry was “inactive”.

Consider `CCOC(=O)C1CCCN(C(=O)c2cc(Nc3ccc(OC)cc3)nc3ccccc23)C1` (stereo unspecified), for which the IC50 result was “inactive”.

As to `c1ccc(CCC2=NCCn3cccc32)cc1`, the IC50 result was “inactive”.

Regarding `Cc1cccc(C)c1NC(=O)C(c1ccccc1F)n1c(=O)c(-c2ccco2)nc2ccccc21` (stereo unspecified), the IC50 is 2.81 µM.

On to `C=C1C(=O)O[C@H]2C[C@H]1[C@@H](OC(C)=O)C/C(C)=C/CC/C(C)=C\CC[C@]2(C)O`, for which the IC50 was 1.87 µM.

On to `CC1=CC2C(C(O)CC3(C)C2CC(C)C32OCOC23COCO3)C2(C)C/C(=C\O)C(=O)C=C12` (stereo unspecified), for which the IC50 is 3.51 µM.

In the case of `CCSc1ccc2c(c1)N(CCCN1CCN(C)CC1)c1ccccc1S2`, the IC50 was 6.35 µM.

Take `CC(=O)Nc1ccc(OCc2cn(CC(=O)c3ccc(O)cc3)nn2)cc1`: the concentration for half-maximal inhibition (IC50) is 2.47 µM.

`O=C(NCc1ccccc1)C(c1cc2ccccc2o1)n1c(=O)c(-c2ccco2)nc2ccccc21` (stereo unspecified): the IC50 was 2.31 µM.

In the case of `COc1ccc(C(C(=O)NC2CCCCC2)n2c(=O)c(-c3ccco3)nc3ccccc32)cc1` (stereo unspecified), the IC50 is 1.27 µM.

Consider `O=C(NC1CCCCC1)C(c1ccccc1)n1c(=O)c(-c2ccco2)nc2ccccc21` (stereo unspecified), for which the IC50 is 0.964 µM.

As for `CCN1C/C(=C/c2ccc(OC)c(O)c2)C(=O)/C(=C/c2ccc(OC)c(O)c2)C1`, the IC50 was 7.54 µM.

In the case of `COc1ccccc1-c1cc(C(=O)NC2CCN(C)CC2)c2ccc(Cl)c(C)c2n1`, the IC50 result was “inactive”.

In the case of `CCCCOC(=O)Nc1cc(C(=O)OC)ccc1C(=O)OC`, the IC50 was 6.03 µM.

Regarding `CCc1nnc(NC(=O)c2nc(S(=O)(=O)Cc3cccc(C)c3)ncc2Cl)s1`, the IC50 was 3.29 µM.

On to `O=C(C[n+]1cccc(CNC(=O)c2ccc(OC(F)F)cc2)c1)Nc1cccc(C(F)(F)F)c1`, for which the IC50 result was “inactive”.

As for `C#CCN(C[C@@H]1[C@@H](OC(=O)NCc2ccc(OC)c(OC)c2)[C@@H](OC(=O)NCc2ccc(OC)c(OC)c2)Cn2c(=O)ccc(=O)n21)S(=O)(=O)c1ccc(C)cc1`, the IC50 was 4.59 µM.

Regarding `COc1ccc(NC(=O)c2cc3ccccc3cc2O)cc1`, the IC50 entry was “inactive”.

In the case of `O=C(CF)N(O)c1ccc(C=Cc2ccccc2)cc1`, the IC50 was > 13.3 µM (inactive).

For `O=c1[nH]c(C2CCN(S(=O)(=O)c3ccc(S(=O)(=O)NC4CC4)cc3)CC2)nc2c1nnn2Cc1ccc(F)cc1`, the IC50 is 3.56 µM.

On to `N#Cc1ccc(C(C(=O)Nc2ccc3c(c2)OCCO3)n2c(=O)c(-c3ccco3)nc3ccccc32)cc1` (stereo unspecified), for which the IC50 was 7.22 µM.

Regarding `O=C1NC(=O)N(Cc2ccc(F)cc2)C(=O)/C1=C\C=C\c1ccco1`, the IC50 is 1.69 µM.

As for `C#CCN(C[C@@H]1[C@@H](OC(=O)NCC2CCCCC2)[C@@H](OC(=O)NCC2CCCCC2)Cn2c(=O)ccc(=O)n21)S(=O)(=O)c1ccc(C)cc1`, the IC50 was 4.76 µM.

Turning to `NC(=O)C(C(=O)/C=C/c1ccc(Cl)cc1)=C1SCCS1`, the IC50 entry was “inactive”.
